From PMC6206206, “Behavioral and Pharmacokinetic Profile of Indole-Derived Synthetic Cannabinoids JWH-073 and JWH-210 as Compared to the Phytocannabinoid Δ^9-THC in Rats” (Frontiers in Neuroscience, 2018)

Tests used:
[1] = Serum levels of Δ^9-THC and its metabolites after sc. administration (GC-MS); conditions: after Δ^9-THC 3 mg/kg sc.; for detectability in serum over the measurement intervals: 30 min, 1, 2, 4, 8, 24 h; for maximum serum concentration (Mean ± SEM): n = 6
Wistar rats [2] = test: Open field test (locomotor activity, thigmotaxis, time in center); format: in vivo; conditions: for locomotion in 5 min time intervals (open field): 1 h after administration, vs vehicle
Experimental: (§1) All behavioral experiments were performed 1 h after sc. drugs administration.
A square black plastic open field arena (68 × 68 × 30 cm) was placed in a soundproof and diffusely lit room. Each of animals was placed into the center of the arena, in a novel unfamiliar environment, and 1 h after drug administration the behavior was video-recorded for 30 min using the system EthoVision Color pro v. 3.0 (Noldus, NL). Locomotor activity was subsequently analyzed within 5 min blocks/time intervals (1–6). The calculation of the data was performed in the EthoVision software and corrected (smoothed) for movement deviations of < 3 cm. Initially total distance traveled per time block was calculated and data were plotted in the graphs. To evaluate the spatial characteristics of the locomotor activity such as thigmotaxis and time spent in the center of arena, the arena was virtually divided into 5 × 5 identical square zones with 16 located peripherally and nine centrally. Frequency (f) of appearances of the animal in different zones of the arena was used to calculate thigmotaxis (i) (i = ∑fperipheralzones / ∑fallzones) which is a number (value varying from 0 to 1) indicating the probability of appearance in peripheral zones. Time spent in the center of the arena (Tcenter) was calculated Tcenter = ∑timecentralzones (Balikova et al., [2014]; Horsley et al., [2016]; Palenicek et al., [2016]; Tyls et al., [2016]; Hlozek et al., [2017]; Sichova et al., [2017]; Stefkova et al., [2017]).
To evaluate the effect on the locomotion measured in 5 min intervals, two-way repeated measures ANOVA analysis (factor 1: drug; factor 2: time intervals) was used in software system IBM SPSS version 22. Significant main effects and interaction two-way repeated measures ANOVAs were followed with pairwise comparisons using independent t-test. For repeated measures ANOVAs, where Mauchly's test of sphericity was significant, Greenhouse-Geisser [Greenhouse-Geisser estimate of sphericity (ε) < 0.75 or Huynh-Feldt (ε) >0.75] correction are reported. Degrees of freedom were rounded to whole number for presentational purposes. For independent t-test, where Levene's test for equality of variances was significant, statistics corrected for unequal variances are given p < 0.05 (two tailed) was considered the minimal criterion for statistical significance. For multiple comparisons, t-test was used with Bonferroni correction. The total length of the trajectory over 30-min, thigmotaxis and time in the center, ASR, habituation and PPI were analyzed by one-way ANOVA analysis by using software STATISTICA version 9.0. Where appropriate, ANOVA analyses were followed by the Tukey post-hoc test. Statistical significance was set at p < 0.05 for all analyses.

Wistar rats [3] = test: Prepulse inhibition (PPI) of acoustic startle response (ASR); format: in vivo; conditions: for alteration of ASR or PPI by acute treatment: all doses tested, sc., 1 h after administration
Experimental: as §1
The PPI of ASR took place in two ventilated startle chambers (SR-LAB, San Diego Instruments, California, USA) which were calibrated to ensure equivalent stabilimeter sensitivity between the chambers. The test consists of acclimatization and two sessions, as previuosly described (Direnberger et al., [2012]; Palenicek et al., [2016]; Tyls et al., [2016]; Hlozek et al., [2017]; Sichova et al., [2017]; Stefkova et al., [2017]). Briefly, acclimatization was performed 2 days before the test, when drug-free rats were habituated in 5 min session with five presentations of pulse alone stimuli (115 dB/20 ms) over background white noise (75 dB). On the day of test, the compounds or vehicle were administered sc. 1 h prior to PPI/ASR testing. After acclimatization (5 min with 75 dB background noise), the test started with a short session of six 40 ms 125 dB pulse trials to establish baseline ASR. It was followed by the second session consisting of trials presented in a pseudorandom order: (1) single pulse alone: 40 ms 125 dB; (2) trial of prepulse-pulse: 20 ms prepulse of 83 dB presented 30, 60, and 120 ms (average 70 ms) before 40 ms 125 dB pulse; (C) 60 ms no stimulus. Finally, six […] 125 dB pulse trials were delivered. Habituation was calculated by the percentage reduction in ASR from the initial six, to the final six pulse trials. PPI was calculated as: [100–(mean prepulse–pulse trials/mean pulse alone trials)^*100]. ASR was derived from mean pulse alone trials. Animals with an AVG response lower than 10 were excluded from further analysis as non-responders.
To evaluate the effect on the locomotion measured in 5 min intervals, two-way repeated measures ANOVA analysis (factor 1: drug; factor 2: time intervals) was used in software system IBM SPSS version 22. […] The total length of the trajectory over 30-min, thigmotaxis and time in the center, ASR, habituation and PPI were analyzed by one-way ANOVA analysis by using software STATISTICA version 9.0. […]

[4] = system: cannabinoid CB1 receptors; conditions: cited from earlier work
mice = conditions: 3–30 mg/kg; ref Marshell et al., 2014; cited from earlier work
[5] = Serum levels of JWH-073 and JWH-210 after sc. administration (LC-MS)
[6] = 3 mg/kg sc., vs control, p < 0.01

With `CCCCCc1cc(O)c2c(c1)OC(C)(C)[C@@H]1CCC(C(=O)O)=C[C@@H]21` [THC-COOH] the “detectability in serum over the measurement intervals” value [1] was “detectable as Δ^9-THC at all intervals”, the “time of maximum serum concentration” value ([1]; rat serum) was 1 h and the “maximum serum concentration (Mean ± SEM)” value ([1]; rat serum) was 10.5 ± 7.27 ng/mL.

In the case of `CCCCn1cc(C(=O)c2cccc3ccccc23)c2ccccc21` [JWH-073, (1-butylindol-3-yl)-naphthalen-1-ylmethanone], the “locomotion in 5 min time intervals (open field)” value (Wistar rats [2]; 0.1 mg/kg sc.) is reported as “significantly increased locomotor activity at the 5-10 and 10-15 min time blocks”, the “locomotion in 5 min time intervals (open field)” value (Wistar rats [2]; 0.5 mg/kg sc.) is reported as “increased locomotion at 0–5, 5–10, 10–15, and 20–25 min onset” and the “total length of the trajectory over 30-min (total locomotor activity)” value (Wistar rats [2]; 0.5 mg/kg sc., vs control group, p < 0.05) is reported as “significantly increased locomotor activity”. The “locomotion in 5 min time intervals (open field)” value (Wistar rats [2]; 5 mg/kg sc.) was “reduced the locomotor activity at 15–20 min time block”, the “thigmotaxis (probability of appearance in peripheral zones)” value (Wistar rats [2]; 0.1, 0.5 and 5 mg/kg sc.) was “neither JWH-073 nor JWH-210 modified the thigmotaxis” and the “time spent in the central zones of the open field” value (Wistar rats [2]; 0.1, 0.5 and 5 mg/kg sc.) was “neither JWH-073 nor JWH-210 modified”. For the same compound, the “alteration of ASR or PPI by acute treatment” value (Wistar rats [3]) was “did not find significant alteration”, the “CB1 binding affinity relative to Δ^9-THC (fold higher)” value ([4]; vs Δ^9-THC, ref Wiley et al., 1998, Aung et al., 2000, Brents et al., 2012) was “four-fold higher” and the locomotor activity (mice) was “dose-dependent reduced locomotor activity”. The “detectability in serum over the measurement intervals” value ([5]; 0.5 mg/kg sc., 30 min, 1, 2, 4, 8, 24 h) was “detectable at all measurement intervals”, the “maximum serum concentration (Mean ± SEM)” value ([5]; 0.5 mg/kg sc., rat serum, n = 8) was 1.84 ± 0.06 ng/mL and the Tmax ([5]; male, Wistar, rat, serum, sc, 0.5 mg/kg) was 4 h. The concentration at 24 h ([5]; male, Wistar, rat, serum, subcutaneous, 0.5 mg/kg) was 0.41 ± 0.19 ng/mL.

In the case of `CCCCCc1cc(O)c2c(c1)OC(C)(C)[C@@H]1CCC(C)=C[C@@H]21` [Δ^9-THC, Δ9-tetrahydrocannabinol], the “thigmotaxis (probability of appearance in peripheral zones)” value (Wistar rats [2]; [6]) is reported as “decreased thigmotaxis”, the “time spent in the center of the open field arena” value (Wistar rats [2]; [6]) is reported as “increased time spent in central zone” and the “total trajectory in the open field test” value (Wistar rats [2]; 1 or 3 mg/kg sc.) is reported as “did not affect the total trajectory”. For the same compound, the “locomotion in 5 min time intervals (open field)” value (Wistar rats [2]; 1 or 3 mg/kg sc.) was “neither a main effect of drug nor drug × time interval interaction were found”, the “prepulse inhibition (PPI), post-hoc” value (Wistar rats [3]; 1 mg/kg sc., p = 0.06) was “slight not significant decrease of PPI” and the “alteration of ASR or PPI by acute treatment” value (Wistar rats [3]) was “did not find significant alteration”. The Ki ([4]; ref Huffman et al., 2005, read-out: Ki, affinity for central and peripheral cannabinoid CB1 receptors) was 41 ± 2 nM, the “detectability in serum over the measurement intervals” value [1] was “detectable as Δ^9-THC at all intervals” and the “time of maximum serum concentration” value ([1]; rat serum) was 1 h. For the same compound, the “time of second serum peak” value ([1]; rat serum) was 8 h and the “maximum serum concentration (Mean ± SEM)” value ([1]; rat serum) was 12.1 ± 3.06 ng/mL.
